Patent EP4725941A1, “ARYLAMIDE DERIVATIVE HAVING ANTITUMOR ACTIVITY” (priority 2020, dated 2021)
Where two headings read alike, the source gives them in different places.

Assays:
MEK1 = biological target: T1, MEK1 (Homo sapiens, UniProt Q02750); test: MEK1-inhibiting activity, fluorescent polarization method (CRAF/MEK1/ERK2 cascade, IMAP); assay type: biochemical; details: Table 3; read-out: MEK1 IC50
T1 construct: purchased Thermo Fisher Scientific Inc. (MEK1, CRAF); Carna Biosciences, Inc. (ERK2)
T1 sequence (Q02750 whole entry): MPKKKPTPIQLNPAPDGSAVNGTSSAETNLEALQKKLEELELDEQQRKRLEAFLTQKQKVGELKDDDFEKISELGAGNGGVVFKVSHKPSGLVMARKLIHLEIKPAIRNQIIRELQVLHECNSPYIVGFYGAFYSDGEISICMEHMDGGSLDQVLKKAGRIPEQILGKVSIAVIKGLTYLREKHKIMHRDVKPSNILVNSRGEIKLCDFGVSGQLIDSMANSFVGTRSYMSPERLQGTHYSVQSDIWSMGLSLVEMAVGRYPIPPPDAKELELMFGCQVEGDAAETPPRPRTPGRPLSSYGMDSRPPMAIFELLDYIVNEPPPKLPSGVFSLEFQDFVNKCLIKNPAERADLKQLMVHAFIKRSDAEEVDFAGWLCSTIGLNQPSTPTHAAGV
Experimental: The MEK1-inhibiting activity of the compounds listed in Table 3 below were evaluated by the fluorescent polarization method as described below.

BRAF = biological target: T2, BRAF (Homo sapiens, UniProt P15056); test: BRAF-inhibiting activity, time-resolved fluorescence-fluorescence resonance energy transfer assay; assay type: biochemical
T2 construct: purchased Eurofins Genomics KK; (BRAF); Thermo Fisher Scientific Inc. (MEK1)
T2 sequence (P15056 417-766 limits assumed): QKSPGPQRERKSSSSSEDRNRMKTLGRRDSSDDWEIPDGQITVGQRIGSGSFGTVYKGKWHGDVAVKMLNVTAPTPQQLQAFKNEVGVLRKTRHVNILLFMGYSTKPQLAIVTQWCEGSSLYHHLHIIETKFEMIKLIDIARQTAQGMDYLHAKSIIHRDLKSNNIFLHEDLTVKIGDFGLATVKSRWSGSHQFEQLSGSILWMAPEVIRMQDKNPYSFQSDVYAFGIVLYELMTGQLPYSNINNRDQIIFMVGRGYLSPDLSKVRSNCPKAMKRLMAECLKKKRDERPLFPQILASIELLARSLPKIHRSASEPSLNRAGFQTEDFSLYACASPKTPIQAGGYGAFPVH
Experimental: The BRAF-inhibiting activity of the compounds listed in Table 3 below was evaluated by the time-resolved fluorescence-fluorescence resonance energy transfer assay as described below.

A549 = test: Cell proliferation-inhibiting activity (ATP in viable cells, CellTiter-Glo), A549; assay type: cell-based, human; details: A549, 96 h, read-out: A549 IC50
Calu-6 = test: Cell proliferation-inhibiting activity (ATP in viable cells, CellTiter-Glo), Calu-6; assay type: cell-based, human; details: Calu-6, 96 h, read-out: Calu-6 IC50
NCI-H2122 = test: Cell proliferation-inhibiting activity (ATP in viable cells, CellTiter-Glo), NCI-H2122; assay type: cell-based, human; details: NCI-H2122, 96 h, read-out: NCI-H2122 IC50
[1] = Human liver microsome stability; assay type: in vitro ADME; details: human liver microsomes, pH 7.4
[2] = human lung cancer cells, 4 days

In the case of `NC(=O)c1cc(Cc2cccc(NS(=O)(=O)C3CCOCC3)c2F)c(F)c(F)c1Nc1ccc(I)cc1F` [Compound E-23, 3,4-difluoro-2-(2-fluoro-4-iodoanilino)-5-[[2-fluoro-3-(oxan-4-ylsulfonylamino)phenyl]methyl]benzamide], the IC50 (MEK1) is reported as 61 nM, the IC50 (BRAF; read-out: BRAF IC50; Table 3) is reported as 6 nM and the IC50 (A549; [2]) is reported as 31 nM. It also gave an IC50 (Calu-6; [2]) of 47 nM, an IC50 (NCI-H2122; [2]) of 4 nM and a microsomal CLint at 0.99 µM [1] of 98 µL/min/mg.
Work on `CC(C)S(=O)(=O)Nc1cccc(Cc2cc(C(N)=O)c(Nc3ccc(I)cc3F)c(F)c2F)c1F` [Compound E-24, 3,4-Difluoro-2-(2-fluoro-4-iodoanilino)-5-[[2-fluoro-3-(propan-2-ylsulfonylamino)phenyl]methyl]benzamide] yielded an IC50 (MEK1) of 189 nM, an IC50 (BRAF; read-out: BRAF IC50; Table 3) of 20 nM and an IC50 (A549; [2]) of 26 nM. For the same compound, the IC50 (Calu-6; [2]) was 63 nM, the IC50 (NCI-H2122; [2]) was 5 nM and the microsomal CLint at 0.99 µM [1] was 10 µL/min/mg.
Work on `CCS(=O)(=O)Nc1cccc(Cc2cc(C(N)=O)c(Nc3ccc(I)cc3F)c(F)c2F)c1` [Compound F-2, 5-[[3-(Ethylsulfonylamino)phenyl]methyl]-3,4-difluoro-2-(2-fluoro-4-iodoanilino)benzamide] yielded an IC50 (MEK1) of 383 nM, an IC50 (BRAF; read-out: BRAF IC50; Table 3) of 5 nM and an IC50 (A549; [2]) of 8 nM. It also gave an IC50 (Calu-6; [2]) of 66 nM, an IC50 (NCI-H2122; [2]) of 8 nM and a microsomal CLint at 0.99 µM [1] of 15 µL/min/mg.
Compound `CNS(=O)(=O)Nc1nccc(Cc2cc(C(=O)NOC)c(Nc3ccc(C4CC4)cc3F)c(F)c2F)c1F` [Compound G-2, 2-(4-Cyclopropyl-2-fluoroanilino)-3,4-difluoro-5-[[3-fluoro-2-(methylsulfamoylamino)pyridin-4-yl]methyl]-N-methoxybenzamide] has an IC50 (MEK1) of 6 nM, an IC50 (BRAF; read-out: BRAF IC50; Table 3) of 3 nM and an IC50 (A549; [2]) of 2 nM. It also gave an IC50 (Calu-6; [2]) of 13 nM, an IC50 (NCI-H2122; [2]) of 0.4 nM and a microsomal CLint at 0.99 µM [1] of 31 µL/min/mg.
`CNS(=O)(=O)Nc1nccc(Cc2cc(C(=O)NOC)c(Nc3ccc(Br)cc3F)c(F)c2F)c1F` [Compound G-3, 2-(4-Bromo-2-fluoroanilino)-3,4-difluoro-5-[[3-fluoro-2-(methylsulfamoylamino)pyridin-4-yl]methyl]-N-methoxybenzamide] showed an IC50 (MEK1) of 15 nM, an IC50 (BRAF; read-out: BRAF IC50; Table 3) of 5 nM and an IC50 (A549; [2]) of 7 nM. For the same compound, the IC50 (Calu-6; [2]) was 47 nM, the IC50 (NCI-H2122; [2]) was 2 nM and the microsomal CLint at 0.99 µM [1] was 29 µL/min/mg.
With `CNS(=O)(=O)Nc1nccc(Cc2cc(C(N)=O)c(Nc3ccc(SC(F)F)cc3F)c(F)c2F)c1F` [Compound H-1, 2-[4-(difluoromethylsulfanyl)-2-fluoroanilino]-3,4-difluoro-5-[[3-fluoro-2-(methylsulfamoylamino)pyridin-4-yl]methyl]benzamide] the IC50 (MEK1) was 7 nM, the IC50 (BRAF; Table 3; read-out: BRAF IC50) was 2 nM and the IC50 (A549; Homo sapiens) was 9 nM. The IC50 (Calu-6; Homo sapiens) was 21 nM, the IC50 (NCI-H2122; Homo sapiens) was 5 nM and the microsomal CLint at 0.99 µM [1] was 39 µL/min/mg.
Compound `CNS(=O)(=O)Nc1nccc(Oc2cc(C(N)=O)c(Nc3ccc(I)cc3F)c(F)c2F)c1F` [Compound H-4, 3,4-difluoro-2-(2-fluoro-4-iodoanilino)-5-[3-fluoro-2-(methylsulfamoylamino)pyridin-4-yl]oxybenzamide] has an IC50 (MEK1) of 8 nM, an IC50 (BRAF; read-out: BRAF IC50; Table 3) of 12 nM and an IC50 (A549; [2]) of 9 nM. For the same compound, the IC50 (Calu-6; [2]) was 6 nM, the IC50 (NCI-H2122; [2]) was 1 nM and the microsomal CLint at 0.99 µM [1] was 11 µL/min/mg.
`CNS(=O)(=O)Nc1nccc(Cc2cc(C(N)=O)c(Nc3ccc(I)cc3F)cc2F)c1F` [Compound I-1, 4-fluoro-2-(2-fluoro-4-iodoanilino)-5-[[3-fluoro-2-(methylsulfamoylamino)pyridin-4-yl]methyl]benzamide] gave an IC50 (MEK1) of 25 nM, an IC50 (BRAF; read-out: BRAF IC50; Table 3) of 3 nM and an IC50 (A549; [2]) of 5 nM. It also gave an IC50 (Calu-6; [2]) of 15 nM, an IC50 (NCI-H2122; [2]) of 3 nM and a microsomal CLint at 0.99 µM [1] of 19 µL/min/mg.
`CNS(=O)(=O)Nc1nccc(Cc2cc(C(N)=O)c(Nc3ccc(I)cc3F)n(C)c2=O)c1F` [Compound J-1, 2-(2-fluoro-4-iodoanilino)-5-[[3-fluoro-2-(methylsulfamoylamino)pyridin-4-yl]methyl]-1-methyl-6-oxopyridine-3-carboxamide] gave an IC50 (MEK1) of 58 nM, an IC50 (BRAF; read-out: BRAF IC50; Table 3) of 4 nM and an IC50 (A549; [2]) of 38 nM. It also gave an IC50 (Calu-6; [2]) of 29 nM, an IC50 (NCI-H2122; [2]) of 8 nM and a microsomal CLint at 0.99 µM [1] of 11 µL/min/mg.
Work on `Cn1c(Nc2ccc(C3CC3)cc2F)c(C(N)=O)cc(Cc2ccnc(NS(=O)(=O)NC3CC3)c2F)c1=O` [Compound J-4, 2-(4-Cyclopropyl-2-fluoroanilino)-5-[[2-(cyclopropylsulfamoylamino)-3-fluoropyridin-4-yl]methyl]-1-methyl-6-oxopyridine-3-carboxamide] yielded an IC50 (MEK1) of 877 nM, an IC50 (BRAF; Table 3; read-out: BRAF IC50) of 14 nM and an IC50 (A549; Homo sapiens) of over 2000 nM. For the same compound, the IC50 (Calu-6; Homo sapiens) was over 2000 nM, the IC50 (NCI-H2122; Homo sapiens) was 1060 nM and the microsomal CLint at 0.99 µM [1] was 67 µL/min/mg.
Work on `CNS(=O)(=O)Nc1nccc(Cc2cc(C(=O)NC3CC3)c(Nc3ccc(I)cc3F)n(C)c2=O)c1F` [Compound J-5, N-cyclopropyl-2-(2-fluoro-4-iodoanilino)-5-[[3-fluoro-2-(methylsulfamoylamino)pyridin-4-yl]methyl]-1-methyl-6-oxopyridine-3-carbo xamide] yielded an IC50 (MEK1) of 117 nM, an IC50 (BRAF; read-out: BRAF IC50; Table 3) of 8 nM and an IC50 (A549; [2]) of 7 nM. For the same compound, the IC50 (Calu-6; [2]) was 29 nM, the IC50 (NCI-H2122; [2]) was 4 nM and the microsomal CLint at 0.99 µM [1] was 20 µL/min/mg.
Compound `Cn1c(Nc2ccc(I)cc2F)c(C(=O)NC2CC2)cc(Cc2ccnc(NS(=O)(=O)NC3CC3)c2F)c1=O` [Compound J-6, N-Cyclopropyl-5-[[2-(cyclopropylsulfamoylamino)-3-fluoropyridin-4-yl]methyl]-2-(2-fluoro-4-iodoanilino)-1-methyl-6-oxopyridine-3-carboxamide] has an IC50 (MEK1) of 86 nM, an IC50 (BRAF; read-out: BRAF IC50; Table 3) of 7 nM and an IC50 (A549; [2]) of 14 nM. It also gave an IC50 (Calu-6; [2]) of 27 nM, an IC50 (NCI-H2122; [2]) of 7 nM and a microsomal CLint at 0.99 µM [1] of 45 µL/min/mg.
Compound `CNS(=O)(=O)Nc1nccc(Cc2cc(C(=O)NOC)c(Nc3ccc(I)cc3F)n(C)c2=O)c1F` [Compound J-8, 2-(2-fluoro-4-iodoanilino)-5-[[3-fluoro-2-(methylsulfamoylamino)pyridin-4-yl]methyl]-N-methoxy-1-methyl-6-oxopyridine-3-carboxamide] has an IC50 (MEK1) of 15 nM, an IC50 (BRAF; read-out: BRAF IC50; Table 3) of 2 nM and an IC50 (A549; [2]) of 24 nM. It also gave an IC50 (Calu-6; [2]) of 77 nM, an IC50 (NCI-H2122; [2]) of 5 nM and a microsomal CLint at 0.99 µM [1] of 3 µL/min/mg.
In the case of `CNS(=O)(=O)Nc1nccc(Cc2cc(C(=O)NOC(C)(C)C)c(Nc3ccc(I)cc3F)n(C)c2=O)c1F` [Compound J-10, 2-(2-fluoro-4-iodoanilino)-5-[[3-fluoro-2-(methylsulfamoylamino)pyridin-4-yl]methyl]-1-methyl-N-[(2-methylpropan-2-yl)oxy]-6-oxop yridine-3-carboxamide], the IC50 (MEK1) is reported as 42 nM, the IC50 (BRAF; read-out: BRAF IC50; Table 3) is reported as 10 nM and the IC50 (A549; [2]) is reported as 8 nM. It also gave an IC50 (Calu-6; [2]) of 13 nM, an IC50 (NCI-H2122; [2]) of 2 nM and a microsomal CLint at 0.99 µM [1] of 28 µL/min/mg.
`Cn1c(Nc2ccc(I)cc2F)c(C(=O)NOC(C)(C)C)cc(Cc2ccnc(NS(=O)(=O)NC3CC3)c2F)c1=O` [Compound J-11, 5-[[2-(Cyclopropylsulfamoylamino)-3-fluoropyridin-4-yl]methyl]-2-(2-fluoro-4-iodoanilino)-1-methyl-N-[(2-methylpropan-2-yl)oxy]-6-oxopyr idine-3-carboxamide] showed an IC50 (MEK1) of 48 nM, an IC50 (BRAF; read-out: BRAF IC50; Table 3) of 17 nM and an IC50 (A549; [2]) of 13 nM. The IC50 (Calu-6; [2]) was 27 nM, the IC50 (NCI-H2122; [2]) was 6 nM and the microsomal CLint at 0.99 µM [1] was 47 µL/min/mg.
In the case of `CNS(=O)(=O)Nc1cccc(Cc2cc(C(N)=O)c(Nc3ccc(I)cc3F)n(C)c2=O)c1F` [Compound K-1, 2-(2-Fluoro-4-iodoanilino)-5-[[2-fluoro-3-(methylsulfamoylamino)phenyl]methyl]-1-methyl-6-oxopyridine-3-carboxamide], the IC50 (MEK1) is reported as 55 nM, the IC50 (BRAF; read-out: BRAF IC50; Table 3) is reported as 3 nM and the IC50 (A549; [2]) is reported as 3 nM. For the same compound, the IC50 (Calu-6; [2]) was 14 nM, the IC50 (NCI-H2122; [2]) was 4 nM and the microsomal CLint at 0.99 µM [1] was 97 µL/min/mg.
